Results on 25 compounds are retold here after ChEMBL document CHEMBL5241135, “Activity of N-phenylbenzamide analogs against the neglected disease pathogen, Schistosoma mansoni” (Bioorg Med Chem Lett, 2023).

Activity calls are given as the source filed them. No cut-off for these calls is given here.

Series [1] deals with Schistosoma mansoni. Briefly: Antischistosomal activity against adult stage of Schistosoma mansoni assessed as uncoordinated and slowed motility at 5 uM measured after 1 hr. Format: functional, organism-based.
Series [2] deals with Schistosoma mansoni. Briefly: Antischistosomal activity against adult stage of Schistosoma mansoni assessed as uncoordinated and slowed motility at 5 uM measured after 5 hrs. The series is classed as functional, organism-based.
Series [3] relates to Schistosoma mansoni. The series can be described thus: Antischistosomal activity against adult stage of Schistosoma mansoni assessed as uncoordinated and slowed motility at 5 uM measured after 24 hrs. The series is classed as functional, organism-based.
Series [4] deals with Schistosoma mansoni. The series can be described thus: Antischistosomal activity against adult stage of Schistosoma mansoni assessed as uncoordinated and slowed motility at 5 uM measured after 48 hrs. Format: functional, organism-based.
Series [5] deals with Schistosoma mansoni. Briefly: Antischistosomal activity against adult stage of Schistosoma mansoni assessed as degenerative and lethal changes at 5 uM measured after 1 hr. The series is classed as functional, organism-based.
In series [6] the test system is Schistosoma mansoni. The series can be described thus: Antischistosomal activity against adult stage of Schistosoma mansoni assessed as degenerative and lethal changes at 5 uM measured after 5 hrs. Format: functional, organism-based.
The test system of series [7] is Schistosoma mansoni. The series can be described thus: Antischistosomal activity against adult stage of Schistosoma mansoni assessed as degenerative and lethal changes at 5 uM measured after 24 hrs. Format: functional, organism-based.
Series [8] has as its system Schistosoma mansoni. Briefly: Antischistosomal activity against adult stage of Schistosoma mansoni assessed as degenerative and lethal changes at 5 uM measured after 48 hrs. The series is classed as functional, organism-based.
A further series concerns HEK293. The series can be described thus: Cytotoxicity against human HEK293 cells measured after 48 hrs. Format: toxicity, cell-based. Particulars: hek293, 48 h.
For series [9], the system named is Schistosoma mansoni. The series can be described thus: Antischistosomal activity against adult stage of Schistosoma mansoni assessed as reduction in worm motility measured after 24 hrs. Format: functional, organism-based.
Series [10] in a line: Selectivity index, ratio of CC50 for human HEK293 cells to EC50 for antischistosomal activity against adult stage of Schistosoma mansoni. Format: toxicity. Particulars: read-out: Ratio CC50/EC50.

For the compound `Cc1ccc(NC(=O)c2ccccc2)cc1C`, the result in the series with Schistosoma mansoni [1], in the series on Schistosoma mansoni [2], in the series with Schistosoma mansoni [3], in the series with Schistosoma mansoni [4], in the series on Schistosoma mansoni [5] and in the series on Schistosoma mansoni [6] was inactive. In addition, the outcome in the series with Schistosoma mansoni [7] and with Schistosoma mansoni [8] was inactive. Further, the CC50 (as a rule, the concentration that lowers cell viability or growth by half) in the series on HEK293 was more than 20 µM.
Regarding `Cc1ccc(NC(=O)c2ccc(F)cc2)cc1C`, the outcome with Schistosoma mansoni [1], in the series on Schistosoma mansoni [2], with Schistosoma mansoni [3], with Schistosoma mansoni [4], in the series with Schistosoma mansoni [5] and in the series on Schistosoma mansoni [6] was inactive. In addition, the result in the series on Schistosoma mansoni [7] and in the series with Schistosoma mansoni [8] was inactive. In the series on HEK293, the CC50 is more than 20 µM.
Take `COc1ccc(NC(=O)c2ccc(C#N)cc2)cc1OC`: the result in the series with Schistosoma mansoni [1], in the series on Schistosoma mansoni [2], in the series on Schistosoma mansoni [3], with Schistosoma mansoni [4], in the series with Schistosoma mansoni [5] and in the series with Schistosoma mansoni [6] was inactive. Also, the result in the series on Schistosoma mansoni [7] and in the series with Schistosoma mansoni [8] was inactive. Further, in the series with HEK293, the CC50 was more than 20 µM.
On to `O=C(Nc1cccc(C(F)(F)F)c1)c1ccc(C(F)(F)F)cc1`, for which the result with Schistosoma mansoni [5], in the series with Schistosoma mansoni [6], with Schistosoma mansoni [7] and in the series on Schistosoma mansoni [8] was Active. In the series on Schistosoma mansoni [9], the EC50 (usually the concentration that produces a half-maximal response) was found to be 1.1 µM. Moreover, in [10], the selectivity ratio was determined as 10.1.
For the compound `Cc1ccc(NC(=O)c2ccc(C(F)(F)F)cc2)cc1C`, the result in the series on Schistosoma mansoni [1], with Schistosoma mansoni [2], in the series on Schistosoma mansoni [7] and in the series with Schistosoma mansoni [8] was Active. For the same compound, the EC50 with Schistosoma mansoni [9] was determined as 3.7 µM. In the series with HEK293, this compound returned a CC50 of more than 20 µM. Also, the selectivity ratio in [10] is more than 5.4.
In the case of `O=C(Nc1ccc(F)c(F)c1)c1ccccc1`, the result in the series with Schistosoma mansoni [1], in the series with Schistosoma mansoni [2], with Schistosoma mansoni [3], in the series on Schistosoma mansoni [4], in the series with Schistosoma mansoni [5] and in the series with Schistosoma mansoni [6] was inactive. The outcome with Schistosoma mansoni [7] and with Schistosoma mansoni [8] was inactive. Moreover, the CC50 with HEK293 is more than 20 µM.
`COc1ccc(NC(=O)c2cc(Cl)ccc2O)cc1OC`: the outcome with Schistosoma mansoni [1] and in the series on Schistosoma mansoni [5] was inactive. Besides, the CC50 in the series on HEK293 is more than 20 µM.
As for `N#Cc1ccc(C(=O)Nc2ccccc2)cc1`, the outcome in the series with Schistosoma mansoni [1], with Schistosoma mansoni [2], with Schistosoma mansoni [3], with Schistosoma mansoni [4], in the series with Schistosoma mansoni [5] and with Schistosoma mansoni [6] was inactive. Moreover, the result in the series with Schistosoma mansoni [7] and in the series with Schistosoma mansoni [8] was inactive. For the same compound, the CC50 with HEK293 is more than 20 µM.
Turning to `O=C(Nc1cccc(C(F)(F)F)c1)c1ccccc1`, the outcome in the series on Schistosoma mansoni [3], in the series with Schistosoma mansoni [4], in the series on Schistosoma mansoni [7] and in the series with Schistosoma mansoni [8] was inactive. The same compound had a CC50 in the series on HEK293 of more than 20 µM.
Take `O=C(Nc1ccc(Cl)c(Cl)c1)c1ccc(C(F)(F)F)cc1`: the result with Schistosoma mansoni [5], in the series on Schistosoma mansoni [6], in the series with Schistosoma mansoni [7] and in the series with Schistosoma mansoni [8] was Active. Also, in the series on Schistosoma mansoni [9], the EC50 came to 0.08 µM. For the same compound, the selectivity ratio in series [10] is 123.
As for `O=C(Nc1ccc(Cl)c(Cl)c1)c1ccc(F)cc1`, the outcome in the series on Schistosoma mansoni [1], with Schistosoma mansoni [2], in the series with Schistosoma mansoni [3] and in the series with Schistosoma mansoni [4] was Active. The CC50 in the series on HEK293 is more than 20 µM.
Take `Cc1ccc(NC(=O)c2ccc(C#N)cc2)cc1C`: the outcome in the series with Schistosoma mansoni [1], with Schistosoma mansoni [2], with Schistosoma mansoni [3], in the series on Schistosoma mansoni [4], with Schistosoma mansoni [5] and in the series on Schistosoma mansoni [6] was inactive. Besides, the result with Schistosoma mansoni [7] and in the series with Schistosoma mansoni [8] was inactive. The CC50 with HEK293 is more than 20 µM.
Regarding `COc1ccc(NC(=O)c2ccccc2)cc1OC`, the result in the series on Schistosoma mansoni [1], with Schistosoma mansoni [2], with Schistosoma mansoni [3], with Schistosoma mansoni [4], with Schistosoma mansoni [5] and with Schistosoma mansoni [6] was inactive. Besides, the result with Schistosoma mansoni [7] and in the series on Schistosoma mansoni [8] was inactive. Further, in the series with HEK293, the CC50 is more than 20 µM.
Turning to `O=C(Nc1ccccc1)c1ccc(F)cc1`, the result with Schistosoma mansoni [1], in the series on Schistosoma mansoni [2], with Schistosoma mansoni [3], with Schistosoma mansoni [4], in the series with Schistosoma mansoni [5] and with Schistosoma mansoni [6] was inactive. Further, the result in the series with Schistosoma mansoni [7] and in the series with Schistosoma mansoni [8] was inactive. The compound further showed a CC50 in the series on HEK293 of more than 20 µM.
On to `N#Cc1ccc(C(=O)Nc2cccc(C(F)(F)F)c2)cc1`, for which the result in the series on Schistosoma mansoni [1], in the series with Schistosoma mansoni [2], in the series with Schistosoma mansoni [3], with Schistosoma mansoni [4], with Schistosoma mansoni [5] and in the series with Schistosoma mansoni [6] was inactive. The outcome in the series with Schistosoma mansoni [7] and in the series on Schistosoma mansoni [8] was inactive. In the series with HEK293, the CC50 is more than 20 µM.
On to `O=C(Nc1cccc(C(F)(F)F)c1)c1ccc(F)cc1`, for which the result in the series on Schistosoma mansoni [2], in the series with Schistosoma mansoni [3], with Schistosoma mansoni [4], in the series with Schistosoma mansoni [6], in the series on Schistosoma mansoni [7] and in the series with Schistosoma mansoni [8] was inactive. The compound further displayed a CC50 with HEK293 of more than 20 µM.
In the case of `O=C(Nc1ccc(F)c(F)c1)c1ccc(C(F)(F)F)cc1`, the result in the series with Schistosoma mansoni [1], in the series with Schistosoma mansoni [2], in the series on Schistosoma mansoni [3] and in the series on Schistosoma mansoni [8] was Active. For the same compound, the EC50 with Schistosoma mansoni [9] is 3.8 µM. For the same compound, it took 14.6 µM to reach half-maximal cytotoxicity in the series on HEK293 (CC50). In addition, the selectivity ratio in [10] stood at 3.84.
`O=C(Nc1ccccc1)c1ccc(C(F)(F)F)cc1`: the result with Schistosoma mansoni [1], with Schistosoma mansoni [2], in the series with Schistosoma mansoni [3], with Schistosoma mansoni [4], in the series on Schistosoma mansoni [5] and in the series on Schistosoma mansoni [6] was inactive. The outcome with Schistosoma mansoni [7] and in the series on Schistosoma mansoni [8] was inactive. Besides, in the series with HEK293, the CC50 was more than 20 µM.
Turning to `COc1ccc(NC(=O)c2ccc(C(F)(F)F)cc2)cc1OC`, the result with Schistosoma mansoni [1], with Schistosoma mansoni [2], with Schistosoma mansoni [3], with Schistosoma mansoni [4], in the series on Schistosoma mansoni [5] and in the series on Schistosoma mansoni [6] was inactive. For the same compound, the result in the series on Schistosoma mansoni [7] and with Schistosoma mansoni [8] was inactive. In the series with HEK293, this compound yielded a CC50 of more than 20 µM.
In the case of `N#Cc1ccc(C(=O)Nc2ccc(F)c(F)c2)cc1`, the outcome with Schistosoma mansoni [1], in the series with Schistosoma mansoni [2], in the series with Schistosoma mansoni [3], with Schistosoma mansoni [4], with Schistosoma mansoni [5] and in the series on Schistosoma mansoni [6] was inactive. The outcome with Schistosoma mansoni [7] and in the series with Schistosoma mansoni [8] was inactive. In the series on HEK293, this compound gave a CC50 of more than 20 µM.
Consider `O=C(Nc1ccc(C(F)(F)F)cc1)c1ccc(C(F)(F)F)cc1`, for which the result in the series on Schistosoma mansoni [3] and in the series with Schistosoma mansoni [8] was Active. Besides, the EC50 with Schistosoma mansoni [9] was found to be 1.25 µM. Also, the CC50 with HEK293 was more than 20 µM. Moreover, the selectivity ratio in series [10] was more than 16.
`O=C(Nc1ccc(Cl)c(Cl)c1)c1ccccc1`: the result in the series on Schistosoma mansoni [1], with Schistosoma mansoni [2], with Schistosoma mansoni [3] and in the series on Schistosoma mansoni [4] was Active. The compound further registered a CC50 with HEK293 of more than 20 µM.
Consider `COc1ccc(NC(=O)c2ccc(F)cc2)cc1OC`, for which the outcome in the series with Schistosoma mansoni [2], in the series with Schistosoma mansoni [3], in the series on Schistosoma mansoni [4], in the series with Schistosoma mansoni [6], with Schistosoma mansoni [7] and in the series with Schistosoma mansoni [8] was inactive. The CC50 with HEK293 was more than 20 µM.
`O=C(Nc1ccc(F)c(F)c1)c1ccc(F)cc1`: the result with Schistosoma mansoni [3], in the series on Schistosoma mansoni [4], in the series on Schistosoma mansoni [7] and in the series with Schistosoma mansoni [8] was inactive. Further, the CC50 with HEK293 was more than 20 µM.
For the compound `O=C(Nc1ccc(Cl)nn1)c1cccc(F)c1`, the result in the series with Schistosoma mansoni [1], with Schistosoma mansoni [2], in the series on Schistosoma mansoni [3], in the series with Schistosoma mansoni [4], with Schistosoma mansoni [5] and with Schistosoma mansoni [6] was inactive. The outcome in the series with Schistosoma mansoni [7] and in the series on Schistosoma mansoni [8] was inactive. In the series with HEK293, this compound yielded a CC50 of more than 20 µM.
